Results reported in patent US7772241B2, “Variolin derivatives and their use as antitumor agents” (Pharma Mar S.A., priority 2001, dated 2010).
Like-named read-outs stand apart in the source and are kept apart here. Each block holds one molecule with its values, some of them ahead of it.

How the values were obtained:
IGROV-ET = test: Inhibition of cells growth by colorimetric (SRB) assay, IGROV-ET
Procedure, shortened: (§1)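 Human tumour cells in RPMI 1640 with 10% FBS were seeded at 5×10^3 cells/well, allowed to attach for 18 h, then exposed to samples at 10 to 10^−8 μg/ml for 48 h. Growth was measured by SRB staining after TCA fixation, with absorbance read at 490 nm in triplicate wells.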

LoVo = test: Inhibition of cells growth by colorimetric (SRB) assay, LoVo
Procedure, shortened: as §1

A-549 = test: Inhibition of cells growth by colorimetric (SRB) assay, A-549
Procedure, shortened: as §1

SK-MEL-28 = test: Inhibition of cells growth by colorimetric (SRB) assay, SK-MEL-28
Procedure, shortened: as §1

PANC-1 = test: Inhibition of cells growth by colorimetric (SRB) assay, PANC-1
Procedure, shortened: as §1

IGROV-1 = test: Inhibition of cells growth by colorimetric (SRB) assay, IGROV-1
Procedure, shortened: as §1

HT-29 = test: Inhibition of cells growth by colorimetric (SRB) assay, HT-29
Procedure, shortened: as §1

DU-145 = test: Inhibition of cells growth by colorimetric (SRB) assay, DU-145; details: SRB assay, 48 hours exposure
Procedure, shortened: as §1

LNCaP = test: Inhibition of cells growth by colorimetric (SRB) assay, LNCaP; details: SRB assay, 48 hours exposure
Procedure, shortened: as §1

HeLa-APL = test: Inhibition of cells growth by colorimetric (SRB) assay, HeLa-APL
Text: (§2) The finality of these assays is to interrupt the growth of a “in vitro” tumor cell culture by means a continued exhibition of the cells to the sample to be testing.
(§3) This form of the assay employs 96 well cell culture microplates of 9 mm diameter (Faircloth, 1988; Mosmann, 1983). Most of the cell lines are obtained from American Type Culture Collection (ATCC) derived from different human cancer types.
(§4) Cells are maintained in RPMI 1640 10% FBS, supplemented with 0.1 g/l penicillin and 0.1 g/l streptomycin sulphate and then incubated at 37° C., 5% CO2 and 98% humidity. For the experiments, cells were harvested from subconfluent cultures using trypsin and resuspended in fresh medium before plating.
(§5) Cells are seeded in 96 well microtiter plates, at 5×10^3 cells per well in aliquots of 195 μl medium, and they are allowed to attach to the plate surface by growing in drug free medium for 18 hours. Afterward, samples are added in aliquots of 5 μl in a ranging from 10 to 10^−8 μg/ml, dissolved in DMSO/EtOH/PBS (0.5:0.5:99). After 48 hours exposure, the antitumor effect are measured by the SRB methodology: cells are fixed by adding 50 μl of cold 50% (wt/vol) trichloroacetic acid (TCA) and incubating for 60 minutes at 4° C. Plates are washed with deionized water and dried. One hundred μl of SRB solution (0.4% wt/vol in 1% acetic acid) is added to each microtiter well and incubated for 10 minutes at room temperature. Unbound SRB is removed by washing with 1% acetic acid. Plates are air dried and bound stain is solubilized with Tris buffer. Optical densities are read on a automated spectrophotometric plate reader at a single wavelength of 490 nm.
(§6) The values for mean +/−SD of data from triplicate wells are calculated. Some parameters for cellular responses can be calculated: GI=growth inhibition, TGI=total growth inhibition (cytostatic effect) and LC=cell killing (cytotoxic effect).

LoVo-Dox = test: Inhibition of cells growth by colorimetric (SRB) assay, LoVo-Dox
Procedure, shortened: as §1

K-562 = test: Inhibition of cells growth by colorimetric (SRB) assay, K-562
Procedure, shortened: as §1

SK-BR-3 = test: Inhibition of cells growth by colorimetric (SRB) assay, SK-BR-3; details: for GI50 / CC50: Homo sapiens, SK-BR-3, 48 h
Procedure, shortened: as §1

HeLa = test: Inhibition of cells growth by colorimetric (SRB) assay, HeLa
Text: as §2, §3, §4, §5, §6

GI50 (LoVo; read-out: LOVO GI50, SRB assay, 48 hours exposure): 5.07 µM | GI50 (A-549; read-out: A-549 GI50, SRB assay, 48 hours exposure): 0.707 µM | GI50 (SK-MEL-28; read-out: MEL-28 GI50, SRB assay, 48 hours exposure): 3.08 µM | GI50 (PANC-1; read-out: PANC-1 GI50, SRB assay, 48 hours exposure): 4.05 µM | GI50 (HT-29; read-out: HT-29 GI50, SRB assay, 48 hours exposure): 0.457 µM | GI50 (DU-145; read-out: DU-145 GI50): 0.257 µM | GI50 (LNCaP; read-out: LN-caP GI50): 0.109 µM | GI50 (HeLa-APL; read-out: HELA-APL GI50, SRB assay, 48 hours exposure): 0.0787 µM | GI50 (LoVo-Dox; read-out: LOVO-DOX GI50, SRB assay, 48 hours exposure): 7.51 µM | GI50 (K-562; read-out: K-562 GI50, SRB assay, 48 hours exposure): 2.85 µM | GI50 (SK-BR-3; read-out: SK-BR-3 GI50, SRB assay, 48 hours exposure): 1.92 µM | GI50 (HeLa; read-out: HELA GI50, SRB assay, 48 hours exposure): 0.0576 µM
Structure (SMILES): CSc1nccc(-c2c3c(O)ccnc3n3c(N)nccc23)n1.Cl [Compound 97]
CC50 (IGROV-ET; Homo sapiens, 48 h, read-out: IGROV-ET LC50, SRB assay, 48 hours exposure): 27.7 µM | IGROV-ET TGI (IGROV-ET; SRB assay, 48 hours exposure): 8.12E−06 | GI50 (IGROV-ET; read-out: IGROV-ET GI50, SRB assay, 48 hours exposure): 1.52 µM | CC50 (LoVo; Homo sapiens, LoVo, 48 h, read-out: LOVO LC50, SRB assay, 48 hours exposure): 27.7 µM | LOVO TGI (LoVo; SRB assay, 48 hours exposure): 1.27E−05 | CC50 (A-549; Homo sapiens, A549, 48 h, read-out: A-549 LC50, SRB assay, 48 hours exposure): 22.3 µM | A-549 TGI (A-549; SRB assay, 48 hours exposure): 4.55E−06 | CC50 (SK-MEL-28; Homo sapiens, SK-MEL-28, 48 h, read-out: MEL-28 LC50, SRB assay, 48 hours exposure): 18 µM | MEL-28 TGI (SK-MEL-28; SRB assay, 48 hours exposure): 7.43E−06 | CC50 (PANC-1; Homo sapiens, PANC-1, 48 h, read-out: PANC-1 LC50, SRB assay, 48 hours exposure): 24.6 µM | PANC-1 TGI (PANC-1; SRB assay, 48 hours exposure): 9.98E−06 | CC50 (IGROV-1; Homo sapiens, IGROV-1, 48 h, read-out: IGROV LC50, SRB assay, 48 hours exposure): 27 µM | IGROV TGI (IGROV-1; SRB assay, 48 hours exposure): 3.10E−06 | GI50 (IGROV-1; read-out: IGROV GI50, SRB assay, 48 hours exposure): 0.0931 µM | CC50 (HT-29; Homo sapiens, HT-29, 48 h, read-out: HT-29 LC50, SRB assay, 48 hours exposure): 18.7 µM | HT-29 TGI (HT-29; SRB assay, 48 hours exposure): 4.85E−06 | DU-145 TGI (DU-145): 3.19E−06 | CC50 (DU-145; read-out: DU-145 LC50): 12.8 µM | LN-caP TGI (LNCaP): 2.88E−07 | CC50 (LNCaP; read-out: LN-caP LC50): 5.82 µM | HELA-APL TGI (HeLa-APL; SRB assay, 48 hours exposure): 1.77E−07 | CC50 (HeLa-APL; read-out: HELA-APL LC50, SRB assay, 48 hours exposure): 1.85 µM | CC50 (LoVo-Dox; Homo sapiens, 48 h, read-out: LOVO-DOX LC50, SRB assay, 48 hours exposure): 27.7 µM | LOVO-DOX TGI (LoVo-Dox; SRB assay, 48 hours exposure): 1.93E−05 | CC50 (K-562; Homo sapiens, K562, 48 h, read-out: K-562 LC50, SRB assay, 48 hours exposure): 24.4 µM | K-562 TGI (K-562; SRB assay, 48 hours exposure): 8.34E−06 | CC50 (SK-BR-3; read-out: SK-BR-3 LC50, SRB assay, 48 hours exposure): 23.6 µM | SK-BR-3 TGI (SK-BR-3; SRB assay, 48 hours exposure): 7.37E−06 | HELA TGI (HeLa; SRB assay, 48 hours exposure): 1.28E−07

GI50 (LoVo; read-out: GI50 LOVO, SRB assay, 48 hours exposure): 0.55 µM | GI50 (A-549; read-out: GI50 A-549, SRB assay, 48 hours exposure): 1.15 µM | GI50 (SK-MEL-28; read-out: GI50 MEL-28, SRB assay, 48 hours exposure): 1.1 µM | GI50 (PANC-1; read-out: GI50 PANC-1, SRB assay, 48 hours exposure): 1.79 µM | GI50 (HT-29; read-out: GI50 HT-29, SRB assay, 48 hours exposure): 6.18 µM | GI50 (DU-145; read-out: GI50 DU-145): 1.13 µM | GI50 (LNCaP; read-out: GI50 LN-caP): 0.602 µM | GI50 (HeLa-APL; Homo sapiens, 48 h, read-out: GI50 HELA-APL, SRB assay, 48 hours exposure): 0.0989 µM | GI50 (LoVo-Dox; read-out: GI50 LOVO-DOX, SRB assay, 48 hours exposure): 1.07 µM | GI50 (K-562; read-out: GI50 K-562, SRB assay, 48 hours exposure): 2.87 µM | GI50 (SK-BR-3; read-out: GI50 SK-BR-3, SRB assay, 48 hours exposure): 0.892 µM | GI50 (HeLa; Homo sapiens, HeLa, 48 h, read-out: GI50 HELA, SRB assay, 48 hours exposure): 0.151 µM
Structure (SMILES): COc1ccnc2c1c(-c1ccnc(N)n1)c1ccnc(N)n12.Cl [Compound 116]
TGI IGROV-ET (IGROV-ET; SRB assay, 48 hours exposure): 2.50E−06 | GI50 (IGROV-ET; read-out: GI50 IGROV-ET, SRB assay, 48 hours exposure): 1.37 µM | CC50 (IGROV-ET; read-out: LC50 IGROV-ET, SRB assay, 48 hours exposure): 26.3 µM | TGI LOVO (LoVo; SRB assay, 48 hours exposure): 1.22E−06 | CC50 (LoVo; read-out: LC50 LOVO, SRB assay, 48 hours exposure): 26.3 µM | TGI A-549 (A-549; SRB assay, 48 hours exposure): 7.68E−06 | CC50 (A-549; read-out: LC50 A-549, SRB assay, 48 hours exposure): 26.3 µM | TGI MEL-28 (SK-MEL-28; SRB assay, 48 hours exposure): 2.11E−06 | CC50 (SK-MEL-28; read-out: LC50 MEL-28, SRB assay, 48 hours exposure): 10.4 µM | TGI PANC-1 (PANC-1; SRB assay, 48 hours exposure): 1.29E−05 | CC50 (PANC-1; read-out: LC50 PANC-1, SRB assay, 48 hours exposure): 26.3 µM | TGI IGROV (IGROV-1; SRB assay, 48 hours exposure): 1.66E−06 | GI50 (IGROV-1; read-out: GI50 IGROV, SRB assay, 48 hours exposure): 0.934 µM | CC50 (IGROV-1; read-out: LC50 IGROV, SRB assay, 48 hours exposure): 26.3 µM | TGI HT-29 (HT-29; SRB assay, 48 hours exposure): 1.88E−05 | CC50 (HT-29; read-out: LC50 HT-29, SRB assay, 48 hours exposure): 26.3 µM | TGI DU-145 (DU-145): 2.54E−06 | CC50 (DU-145; read-out: LC50 DU-145): 26.3 µM | TGI LN-caP (LNCaP): 1.21E−06 | CC50 (LNCaP; read-out: LC50 LN-caP): 2.43 µM | CC50 (HeLa-APL; Homo sapiens, 48 h, read-out: LC50 HELA-APL, SRB assay, 48 hours exposure): 2.3 µM | TGI HELA-APL (HeLa-APL; SRB assay, 48 hours exposure): 2.17E−07 | TGI LOVO-DOX (LoVo-Dox; SRB assay, 48 hours exposure): 2.59E−06 | CC50 (LoVo-Dox; read-out: LC50 LOVO-DOX, SRB assay, 48 hours exposure): 26.3 µM | TGI K-562 (K-562; SRB assay, 48 hours exposure): 2.12E−05 | CC50 (K-562; read-out: LC50 K-562, SRB assay, 48 hours exposure): 26.3 µM | CC50 (SK-BR-3; read-out: LC50 SK-BR-3, SRB assay, 48 hours exposure): 3.5 µM | TGI SK-BR-3 (SK-BR-3; SRB assay, 48 hours exposure): 1.55E−06 | TGI HELA (HeLa; SRB assay, 48 hours exposure): 5.26E−07
